From patent US20050159478A1, “Compositions containing d-tocopherol compound polybasic acid partial esters” (priority 2003, published 2005)
Several values for one entry are separate records, joined by “and”; a condition that tells them apart may be missing. Equal entries are not always repeated.

Columns and labels:
[1] = Oscillatory rheology, softening point at tan(δ) = 1; format: physicochemical; conditions: for Rheology (oscillatory) @ Tan(δ) = 1 Temperature (softening point): heating rate 5° C./min, oscillation stress 1.0 Pa, 1.0 Hz
Experimental: Rheology measurements are conducted with TA Instruments Rheolyst AR-1000N rheometer. Experiments are conducted with the parallel plate geometry in a nitrogen atmosphere. The experiments use an oscillation stress of 1.0 Pa at a frequency of 1.0 Hz. The temperature range of the experiments is 40 to 210° C. at a heating rate of 5.0° C./min. Per analogy to rigid sphere or polymers, for TCS samples below the melting point, change in the pseudo G′ and G″ moduli″ is used as an indication of the softening of the sample. The cross-over point corresponds to the point where the ratio of the […] or tan (δ) is equal to one. The temperature at which tan (δ) is equal to one is considered as the softening point for the solid TCS samples. In addition, the second derivative of the loss modulus vs temperature was calculated. A maximum or minimum in the second derivative indicates a curvature or inflexion in the G″ vs T. This can also be taken as indicator of a change in the state of the samples (softening or melting depending on the temperature).
Softening points of these tocopherol succinate samples were identified using oscillatory rheology measurements. The temperature at which tan(δ) is equal to one, i.e., cross-over point (or the point where the samples are less rigid) is considered as their softening point. We call the moduli “pseudo loss and storage moduli”, since below the melting point, the powder cannot in reality be viscoelastic.

[2] = Differential Scanning Calorimetry of tocopherol calcium succinate samples; format: physicochemical; conditions: heating rate 5° C./min; several thermal transitions per sample
Experimental: DSC measurements are conducted with a Perkin Elmer Pyris 1 Differential Scanning Calorimeter. Experiments are conducted between 40° C. and 250° C. at heating/cooling rates of 5.0 and 10.0° C./min. During the experiments, the samples are enclosed in an air tight aluminum pan. The aluminum pan is in a nitrogen purge at 30 psi.

SMILES	Rheology (oscillatory) @ Tan(δ) = 1 Temperature (softening point) [1]	DSC Enthalpy [2]	DSC Onset [2]	softening point in comparison to synthetic dl-tocopherol calcium succinate ([1]; compared with dl-tocopherol calcium succinate)
Cc1c(C)c2c(c(C)c1OC(=O)CCC(=O)O)CC[C@@](C)(CCC[C@H](C)CCC[C@H](C)CCCC(C)C)O2 [d-α-tocopherol succinic acid]	74 °C	80.00 J/g	74.5 °C	
Cc1c(C)c2c(c(C)c1OC(=O)CCC(=O)[O-])CC[C@@](C)(CCC[C@H](C)CCC[C@H](C)CCCC(C)C)O2.Cc1c(C)c2c(c(C)c1OC(=O)CCC(=O)[O-])CC[C@@](C)(CCC[C@H](C)CCC[C@H](C)CCCC(C)C)O2.[Ca+2] [d-α-tocopherol calcium succinate]	151 °C and 153 °C			significantly improved, i.e., increased, softening point
Cc1c(C)c2c(c(C)c1OC(=O)CCC(=O)[O-])CC[C@@](C)(CCC[C@H](C)CCC[C@H](C)CCCC(C)C)O2.Cc1c(C)c2c(c(C)c1OC(=O)CCC(=O)[O-])CC[C@@](C)(CCC[C@H](C)CCC[C@H](C)CCCC(C)C)O2.[Ca+2] (racemic) [dl-tocopherol calcium succinate, reference compound]	147 °C			
